Each structure is given as a SMILES string.

The nature of this series: Chemical stability tests of active ingredients in microemulsion formulations at 40° C. for one month. It is filed as physicochemical. The procedure:
Chemical stability tests were conducted on four-way active ingredient microemulsion formulations at 40° C. for one month to determine the active ingredient percent difference at the end of one month.
Other formulations were subjected to accelerated chemical stability tests at a temperature of 40° C. for a period of one month to determine total chemical stability of the active ingredients.
Only the chemical stability of pyraflufen-ethyl was analyzed because of its susceptibility to hydrolysis, as set forth in Examples 13-16.

[1] abbreviates: four-way microemulsion of Example 11.
[2] abbreviates: four-way microemulsion of Example 12.

`CCOC(=O)COc1cc(-c2nn(C)c(OC(F)F)c2Cl)c(F)cc1Cl` [Pyraflufen-ethyl]: the “Pyraflufen-ethyl Chemical Stability” value was “+5.89%” (formulation of Example 13 (2,4-D acid 9.0%, Dicamba […], Pyraflufen-ethyl 0.6%)); “+1.05%” (formulation of Example 14 (2,4-D acid 9.0%, R(+)MCPP 1.63%, Pyraflufen-ethyl 0.6%)); “+1.07%” (formulation of Example 15 (2,4-D acid 9.0%, R(+)MCPP 1.63%, Dicamba […], Pyraflufen-ethyl 0.6%)); “+0.93%” (formulation of Example 16 (2,4-D acid 9.0%, Pyraflufen-ethyl 0.1%)). The “Chemical Stability (active ingredient percent difference)” value reads like this: under setting [1], “+1.44%”; under setting [2], −0.90%.

On to `O=C(O)COc1nc(Cl)c(Cl)cc1Cl` [Triclopyr], for which the “Chemical Stability (active ingredient percent difference)” value reads like this: under setting [1], “+1.94%”; under setting [2], “+2.38%”.

Regarding `CCCCC(CC)COC(=O)COc1ccc(Cl)cc1Cl` (stereo not shown) [2,4-D 2EHE, 2,4-D 2-ethyl hexyl ester], the “Chemical Stability (active ingredient percent difference)” value is given as “+1.25%” under setting [1] and “+2.02%” under setting [2].

Source of the values: patent US8053392B2, “Auxin acid-catalyzed stable microemulsion pesticide formulation” (PBI/Gordon Corporation, priority 2007, dated 2011).
